Test results: ChEMBL document CHEMBL2040731, “Synthesis and anti-HIV activity of lupane and olean-18-ene derivatives. Absolute configuration of 19,20-epoxylupanes by VCD” (J Nat Prod, 2012)
Active and inactive are the calls of the source. The rule behind the calls is not given here.

How the values were obtained:
HeLa [1] = test: Inhibition of X4-tropic HIV1 envelope glycoprotein-mediated cell-cell fusion between viral envelope expressing human virus-infected HeLa ADA cells to human HeLa P5 cells at 5 uM after 16 hrs by beta-galactosidase reporter gene assay using chemiluminescence method; format: cell-based; conditions: Human immunodeficiency virus 1
HeLa [2] = test: Inhibition of R5-tropic HIV1 envelope glycoprotein-mediated cell-cell fusion between viral envelope expressing human virus-infected HeLa ADA cells to human HeLa P5 cells at 5 uM after 16 hrs by beta-galactosidase reporter gene assay using chemiluminescence method; format: cell-based; conditions: Human immunodeficiency virus 1

SMILES | inhibition (HeLa [1]) | inhibition (HeLa [2])
C=C(C)[C@@H]1CC[C@]2(C)CC[C@]3(C)[C@H](CC[C@@H]4[C@@]5(C)CC[C@H](OC(C)=O)C(C)(C)[C@@H]5CC[C@]43C)[C@@H]12 | 15% | 31%
C=C(C)[C@@H]1CC[C@]2(C)CC[C@]3(C)[C@H](CC[C@@H]4[C@@]5(C)CCC(=O)C(C)(C)[C@@H]5CC[C@]43C)[C@@H]12 | inactive | inactive
CC1(C)C=C2[C@H]3CC[C@@H]4[C@@]5(C)CC[C@H](O)C(C)(C)[C@@H]5CC[C@@]4(C)[C@]3(C)CC[C@@]2(C)CC1 | inactive | inactive
CC(=O)O[C@H]1CC[C@]2(C)[C@H]3CC[C@@H]4[C@]56O[C@H]5C(C)(C)CC[C@]6(C)CC[C@@]4(C)[C@]3(C)CC[C@H]2C1(C)C | inactive | inactive
C=C(C=O)[C@@H]1CC[C@]2(C)CC[C@]3(C)[C@H](CC[C@@H]4[C@@]5(C)CC[C@H](OC(C)=O)C(C)(C)[C@@H]5CC[C@]43C)[C@@H]12 | 6% | 41%
C=C(C=O)[C@@H]1CC[C@]2(C)CC[C@]3(C)[C@H](CC[C@@H]4[C@@]5(C)CC[C@H](O)C(C)(C)[C@@H]5CC[C@]43C)[C@@H]12 | inactive | inactive
C=C(C=O)[C@@H]1CC[C@]2(CO)CC[C@]3(C)[C@H](CC[C@@H]4[C@@]5(C)CC[C@H](O)C(C)(C)[C@@H]5CC[C@]43C)[C@@H]12 | 10% | 26%
C=C(C=O)[C@@H]1CC[C@]2(C)CC[C@]3(C)[C@H](CC[C@@H]4[C@@]5(C)C=CC(=O)C(C)(C)[C@@H]5CC[C@]43C)[C@@H]12 | 44% | 28%
CC(=O)O[C@H]1CC[C@]2(C)[C@H]3CC[C@@H]4[C@H]5[C@H]([C@@]6(C)CO6)CC[C@]5(C)CC[C@@]4(C)[C@]3(C)CC[C@H]2C1(C)C | 6% | 26%
C=C(C)[C@@H]1CC[C@]2(C)CC[C@]3(C)[C@H](CC[C@@H]4[C@@]5(C)CC[C@H](O)C(C)(C)[C@@H]5CC[C@]43C)[C@@H]12 | inactive | inactive
C=C(C)[C@@H]1CC[C@]2(CO)CC[C@]3(C)[C@H](CC[C@@H]4[C@@]5(C)CC[C@H](O)C(C)(C)[C@@H]5CC[C@]43C)[C@@H]12 | 34% | 17%
C=C(C)[C@@H]1CC[C@]2(C)CC[C@]3(C)[C@H](CC[C@@H]4[C@@]5(C)CC/C(=N\O)C(C)(C)[C@@H]5CC[C@]43C)[C@@H]12 | 23% | 7%
